One test deals with T1, LRRK2, LRRK2 (G2019S), DYRK1, CLK1 and TTK kinases (Homo sapiens, UniProt Q13627).
T1 construct: other: DYRK1; Kinase HotSpot service (Reaction Biology), ATP 10 uM
The test is described as follows: Enzyme IC50 by Kinase HotSpot service (Reaction Biology Corporation), values marked with *. The format is biochemical. The settings on record: DYRK1, ATP 10 uM. The method, then: Meanwhile, the enzyme IC50 measurement for some compounds was performed using Kinase HotSpot service (Reaction Biology Corporation); during the test, the ATP concentration was 10 uM, where all were conducted under the same condition; and the concentration of the compound was measured by giving a 3-fold concentration gradient with the highest concentration of […], where the values measured using Kinase HotSpot service (Reaction Biology Corporation) were marked with “*”.
All experimental methods were performed as provided in Kinase HotSpot Customer Protocol (http://www.reactionbiology.com//Kinase_Assay_Protocol).
In the table below, the following designations were used for the evaluation of enzyme inhibitory ability.
Take `COc1cc(P2(=O)CCN(C(C)=O)CC2)ccc1Nc1cc(C2CC2)c2c(C(F)(F)F)c[nH]c2n1` [Example 48, 1-(4-(4-((4-cyclopropyl-3-(trifluoromethyl)-1H-pyrrolo[2,3-b]pyridin-6-yl)amino)-3-methoxyphenyl)-4-oxido-1,4-azaphosphinan-1-yl)ethan-1-one]: the half-maximal inhibitory concentration (IC50) is < 100 nM.

Molecule `O=C(c1ccc(Nc2cc(C3CC3)c3c(C(F)(F)F)c[nH]c3n2)c2c1OCO2)N1CCC(N2CCOCC2)CC1` [Example 49, (7-((4-cyclopropyl-3-(trifluoromethyl)-1H-pyrrolo[2,3-b]pyridin-6-yl)amino)benzo[d][1,3]dioxol-4-yl)(4-morpholinopiperidin-1-yl)methanone] displayed a 50% inhibitory concentration (IC50) of 101 to 300 nM.

The test system of another test is SHP-77. Nature of the test: SHP-77 cancer cell proliferation inhibition (Cell Titer-Glo). Format: cell-based. The settings on record: Homo sapiens, SHP77, SHP-77 small cell lung cancer cell line, 72 hours. Put shortly: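 GI50 comes from CellTiter-Glo luminescence, read 10 min after reagent addition at RT, following 72 h compound treatment. Eleven concentrations were used (⅓ steps, highest 10 μM final) on 2000 cells/well. MDA-MB-231 and MDA-MB-468 were grown in DMEM, SHP-77 in RPMI.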
The molecule `CCNc1cc(Nc2ccc(P3(=O)CCN(C(C)=O)CC3)cc2OC)nc2[nH]cc(C(F)(F)F)c12` [Example 42, 1-(4-(4-((4-(ethylamino)-3-(trifluoromethyl)-1H-pyrrolo[2,3-b]pyridin-6-yl)amino)-3-methoxyphenyl)-4-oxido-1,4-azaphosphinan-1-yl)ethan-1-one] displayed a GI50 of 301 to 1000 nM.

With `CCNc1cc(Nc2ccc(C(=O)N3C[C@@H]4C[C@H]3CO4)c3c2OCCO3)nc2[nH]cc(C(F)(F)F)c12` [Example 44, ((1S,4S)-2-oxa-5-azabicyclo[2.2.1]heptan-5-yl)(8-((4-(ethylamino)-3-(trifluoromethyl)-1H-pyrrolo[2,3-b]pyridin-6-yl)amino)-2,3-dihydrobenzo[b] [1,4]dioxin-5-yl)methanone], the concentration for 50% growth inhibition (GI50) lay within 301 to 1000 nM.

As for `COCCNc1cc(Nc2ccc(S(=O)(=O)N3CCC(N4CCOCC4)CC3)c3c2OCCO3)nc2[nH]cc(C(F)(F)F)c12` [Example 97, N^4-(2-methoxyethyl)-N^6-(8-((4-morpholonopiperidin-1-yl)sulfonyl)-2,3-dihydrobenzo[b] [1,4]dioxin-5-yl)-3-(trifluoromethyl)-1H-pyrrolo[2,3-b]pyridine-4,6-diamine], the GI50 was 301 to 1000 nM.

In turn, `COc1cc(S(=O)(=O)N2CCC(N3CCOCC3)CC2)ccc1Nc1cc(NCCS(C)(=O)=O)c2c(C(F)(F)F)c[nH]c2n1` [Example 194, N^6-(2-methoxy-4-((4-morpholinopiperidin-1-yl)sulfonyl)phenyl)-N^4-(2-(methylsulfonyl)ethyl)-3-(trifluoromethyl)-1H-pyrrolo[2,3-b]pyridine-4,6-diamine] returned a GI50 of 301 to 1000 nM.

As for `COc1cc(S(=O)(=O)N2CCOCC2)ccc1Nc1cc(C2CC2)c2c(C#N)c[nH]c2n1` [Example 227, 4-cyclopropyl-6-((2-methoxy-4-(morpholinosulfonyl)phenyl)amino)-1H-pyrrolo[2,3-b]pyridine-3-carbonitrile], the 50% growth inhibitory concentration (GI50) fell in the range of 301 to 1000 nM.

Take `CNc1cc(Nc2ccc(S(=O)(=O)N3CCC(N4CCOCC4)CC3)c3c2OCCO3)nc2[nH]cc(C(F)(F)F)c12` [Example 233, N^4-methyl-N^6-(8-((4-morpholinopiperidin-1-yl)sulfonyl)-2,3-dihydrobenzo [b] [1,4]dioxin-5-yl)-3-(trifluoromethyl)-1H-pyrrolo[2,3-b]pyridine-4,6-diamine]: the GI50 lay in the range of 301 to 1000 nM.

Regarding `CNc1cc(Nc2ccc(S(=O)(=O)N3CCC(N4C[C@H]5C[C@@H]4CO5)CC3)cc2OC)nc2[nH]cc(C(F)(F)F)c12` [Example 243, N^6-(4-((4-((1R,4R)-2-oxa-5-azabicyclo[2.2.1]heptan-5-yl)piperidin-1-yl)sulfonyl)-2-methoxyphenyl)-N^4-methyl-3-(trifluoromethyl)-1H-pyrrolo[2,3-b]pyridine-4,6-diamine], the concentration for 50% growth inhibition (GI50) was in the range of 51 to 100 nM.

In turn, `CCNc1cc(Nc2cc(F)c(S(=O)(=O)N3CCC(N4CCOCC4)CC3)cc2OC)nc2[nH]cc(C(F)(F)F)c12` [Example 266, N^4-ethyl-N^6-(5-fluoro-2-methoxy-4-((4-morpholinopiperidin-1-yl)sulfonyl)phenyl)-3-(trifluoromethyl)-1H-pyrrolo[2,3-b]pyridine-4,6-diamine] had a GI50 of 301 to 1000 nM.
